# Measured values taken from patent US20170065561A1, “METHODS OF CANCER THERAPY” (CAMBRIDGE ENTERPRISE LIMITED, priority 2014, published 2017).
# Entries after “also recorded” stand apart in the source; their conditions may differ.
# What was measured:
# intracellular ceramide = conditions: cited from earlier work
# [1] = test system: plasma glucosylceramide (GL-1); test: Short-term dose-range experiment in GD mice: plasma glucosylceramide; assay type: in vivo, mouse; conditions: 6 week-old GD mice, 150 mg/kg and 300 mg/kg orally for two weeks
# Method: (§1) The inducible mouse model of type 1 Gaucher disease [Gba^tm1Karl/tm1KarlTg (Mx1-cre) 1Cgn/0 (MGI:3687965; MGI:2176073)[41]. The mating, induction with polyinosinic-polycytidylic (poly I:C) acid sodium salt solution and genotyping were conducted as previously described. Animals of genotype Gba^tm1Karl/tm1KarlTg (Mx1-cre) 1Cgn/0 are referred GD mice; induced mice with the Gba^tm1Karl/tm1Karl and Gba^tm1Karl/+ genotypes and background strain wild type animals served as age-matched controls. All mice here reported had been bred on a C57BL/6 and 129/sv background.
# The drug GENZ 112638 (Genzyme) was formulated in a standard rodent food (TestDiet) at 0.075% and 0.15% w/w. A group of six GD mice received 150 mg/kg daily, a second group of six GD mice received the drug at 300 mg/kg daily, and eight age-sex matched GD animals were given a base diet (TestDiet). The animals received the drug for 14 days and were then killed for analysis of tissue lipids.
# (§2) Concentrations of β-D-glucosylceramide in plasma in the short-term tolerability study were conducted as previously published. β-D-glucosylceramide, β-D-glucosylsphingosine and ceramide concentrations in tissues and plasma samples of the principal intervention and delayed-treatment experiments were quantified as previously reported.
# [2] = in vivo; cited from earlier work
# [3] = target: T1, UDP-glucosylceramide synthase (Homo sapiens, UniProt Q16739); conditions: read-out: IC50 (potency, UDP-glucosylceramide synthase); cited from earlier work
# T1 sequence (Q16739 1-394): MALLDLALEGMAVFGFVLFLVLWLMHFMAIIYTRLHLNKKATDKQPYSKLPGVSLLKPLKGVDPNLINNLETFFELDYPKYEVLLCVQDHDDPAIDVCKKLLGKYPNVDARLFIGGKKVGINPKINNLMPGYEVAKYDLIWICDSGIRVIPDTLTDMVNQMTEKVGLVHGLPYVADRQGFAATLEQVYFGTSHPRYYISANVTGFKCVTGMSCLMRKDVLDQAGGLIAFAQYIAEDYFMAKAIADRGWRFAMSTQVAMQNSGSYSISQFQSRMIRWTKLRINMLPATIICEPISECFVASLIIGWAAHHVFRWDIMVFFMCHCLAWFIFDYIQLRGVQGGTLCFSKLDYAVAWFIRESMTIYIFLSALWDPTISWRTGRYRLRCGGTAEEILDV
# [4] = test system: plasma glucosylsphingosine; test: Delayed treatment experiments: plasma glucosylsphingosine; assay type: in vivo, mouse; conditions: delayed treatment: mean age 7.3 months, 300 mg/kg daily for 5.4 months
# Method: (§3) To investigate the potential effects of delayed treatment, eight Gaucher mice were exposed to Genz-112638 after 6 months of age. The animals received the drug for 6 months at a dose 300 mg/kg daily and were killed at 12 months of age (FIG. 1). A group of eight matched Gaucher disease control mice were given the base standard diet; these animals were monitored and otherwise treated identically with those animals with delayed exposure to the study drug.
# as §2
# plasma ceramide = test: Main treatment experiments in GD mice: plasma ceramide; assay type: in vivo, mouse; conditions: GD mice receiving the high dose
# Method: as §1
# GENZ 112638 was introduced at a mean age of 1.5 months, with access to the diet and water ad libitum. […] The health of the animals was checked daily; body weights and food consumption were monitored at intervals of three days. The humane endpoints were approved and established: (i) reduction of 20% or more of the greatest recorded body weight or (ii) the development of adverse manifestations (e.g. development of frank tumours or cachexia).
# as §2
# plasma IgG = test: Total IgG plasma concentrations (ELISA); assay type: in vivo, mouse; conditions: treated GD mice
# Description: Total IgG ELISA kit (Affimetrix) was used to determine plasma IgG concentrations in selected groups of animals.
# Gaucher mice [5] = test: Main treatment experiments: lymphoma incidence in Gaucher mice; assay type: in vivo, mouse
# Method: (§4) The non-parametric Mann-Whitney test was used for between-groups comparisons. The Fisher's exact test was used for comparison of the occurrence of lymphoma or plasma paraprotein in treated and untreated groups. Statistical analyses were conducted using GraphPad Prism v5.0 software.
# GD mice = test: Delayed treatment experiments: M protein species (electrophoresis and immunofixation); assay type: in vivo, mouse; conditions: delayed treatment: 300 mg/Kg daily months 7-12, age group 12-18 months
# Method: as §3
# (§5) Plasma/serum protein electrophoresis was carried out in agarose gels using a semiautomatic system (Hydrasys, Sebia) using 10 μL samples of neat serum or plasma. Immunofixation using polyclonal anti-sera raised against murine heavy and light immunoglobulin chains was conducted with diluted serum samples as previously reported.
# [6] = mouse, in vivo, 300 mg/kg
# Description: (§6) GENZ 112638 was introduced at a mean age of 1.5 months, with access to the diet and water ad libitum. All experimental animals were housed in individually ventilated cages in groups of up to three mice within the same environmental conditions. The health of the animals was checked daily; body weights and food consumption were monitored at intervals of three days. The humane endpoints were approved and established: (i) reduction of 20% or more of the greatest recorded body weight or (ii) the development of adverse manifestations (e.g. development of frank tumours or cachexia).
# [7] = test system: AKT protein kinase-mammalian target of rapamycin signaling; conditions: polycystic kidney disease; cited from earlier work
# [8] = test system: individuals with non-neuronopathic Gaucher disease; conditions: Phase III, over two years, oral; cited from earlier work
# [9] = test system: (GBA^D409/null) knock-in model of Gaucher disease; conditions: 75 or 150 mg/kg daily orally for 10 weeks, cited from earlier work
# Gaucher mice [10] = test: Main treatment experiments: plasma/serum protein electrophoresis and immunofixation (monoclonal immunoglobulin species); assay type: in vivo, mouse; conditions: for detectable monoclonal paraprotein species: GD mice, early administration from six weeks of age; for M-protein (number of mice): 300 mg/Kg daily months 1.5-12
# Method: as §5, §4
# [11] = test system: plasma β-D-glucosylceramide; test: Main treatment experiments in GD mice: plasma glucosylceramide; assay type: in vivo, mouse
# Method: as §1, §6, §2
# [12] = age group 0-6 months, total 4 mice
# [13] = age group 7-12 months, total 10 mice
# [14] = age group 13-18 months, total 8 mice
substance,measurement,setting,value
"bis{N-[(1R,2R)-2-(2,3-dihydro-1,4-benzodioxin-6-yl)-2-hydroxy-1-(pyrrolidin-1-ylmethyl)ethyl]octanamide} (2R,3R)-2,3-dihydroxybutanedioate [eliglustat tartrate]",intracellular ceramide levels,intracellular ceramide,does not inhibit 1-O-acylceramide synthase or increase intracellular ceramide levels
same,plasma glucosylceramide (GL-1) concentration,[1],decrease the concentration of glucosylceramide
same,plasma glucosylceramide (GL-1) concentration,[1]; listed as GENZ 112638,dose-dependent decrease
same,safety and tolerability,[2],safe and tolerable
same,IC50,[3],24 nM
same,plasma concentration of glucosylsphingosine,[4],decreased
same,mean plasma ceramide concentrations,plasma ceramide,slightly increased
same,total plasma immunoglobulin G concentrations,plasma IgG,decreased significantly
same,"occurrence of B cell lymphoma, myeloma or other tumours","Gaucher mice [5]; 22 Gaucher mice exposed for 2-10 months, 300 mg/kg, early administration, listed as GENZ 112638, 300 mg/kg",No B cell lymphomas or other tumours were found; also recorded: completely prevented
same,Lymphoma (number of mice),Gaucher mice [5]; [12],0
same,Lymphoma (number of mice),Gaucher mice [5]; [13],0
same,Lymphoma (number of mice),Gaucher mice [5]; [14],0
same,Lymphoma (number of mice),"Gaucher mice [5]; all age groups, total 22 mice",0
same,M protein (number of mice with monoclonal paraprotein or oligoclonal immunoglobulin secretion),GD mice,5
same,M protein (number of mice with monoclonal paraprotein or oligoclonal immunoglobulin secretion),GD mice; listed as GENZ 112638,five
same,animals withdrawn early from the study as a result of weight loss,[6],Two
same,AKT protein kinase-mTOR signaling and cell-cycle control,[7],repress
same,key clinical manifestations of the disease,[8],clearly improved
same,glucosylceramide in tissues,[9]; 10 week-old and 7 month-old mice,dose-dependent reduction
same,infiltration of abnormal macrophages in tissues,[9],decreased infiltration
same,detectable monoclonal paraprotein species,Gaucher mice [10]; listed as GENZ 112638,suppressed the appearance
same,detectable monoclonal paraprotein species,Gaucher mice [10]; listed as Genz-112638,none and prevents development of monoclonal paraproteins
same,M-protein (number of mice),Gaucher mice [10]; [12],0
same,M-protein (number of mice),Gaucher mice [10]; [13],0
same,M-protein (number of mice),Gaucher mice [10]; [14],0
same,M-protein (number of mice),"Gaucher mice [10]; all age groups, total 22 mice",0
same,glucosylceramide concentration in plasma,"[11]; GD mice with intermittent treatment for 10 months, listed as GENZ 112638",raised above the reference range
same,glucosylceramide concentration in plasma,"[11]; GD mice with intermittent treatment for 10 months, listed as Genz-112638",increased plasma concentration
same,plasma β-D-glucosylceramide concentration,"[11]; GD mice, 300 mg/kg daily, early continuous treatment",decreased
same,glucosylceramide concentration in plasma,"[11]; GD mice, after 10 months treatment, p<0.01",reduced
same,glucosylceramide/ceramide ratio,[11]; treated GD animals compared with untreated,markedly diminished
